Reference: US20080287537A1, “Composition, Particularly a Cosmetic Composition, Comprising ((Dialkylamino)Alkoxy) Ethanol Ester” (L'OREAL, priority 2004, published 2008)

Columns and labels:
SKNSH nerve cells = assay: Inhibition of calcium flux (IC50Ca2+) on SKNSH nerve cells; type: cell-based; settings: Homo sapiens, SK-N-SH, concentration which inhibits release of Ca2+ by 50%
Text: (§1) In order for a substance to be recognized as a calcium-channel inhibitor, it must be able to reduce the intracellular calcium concentration or reduce the binding of calcium to intracellular proteins, such as, for example, calmodulin, such as is described in particular by Galizzi, J. P. et al., J. Biol. Chem., 1987, 262 p. 6947; by Y. Okamiya et al., Eur. J. Pharmacol., 1991, 205, p. 49; by J. A. Wagner et al., J. Neurosci., 1988, 8, p. 3354; by H. R. Lee et al., Life Sci., 1984, 35, p. 721; by Schoemaker H. and Lauger S., Eur. J. Pharmacol., 1985, 111, p. 273 or by I. J. Reynolds et al., J. Pharmacol. Exp. Ther., 1986, 237, p. 731.
(§2) The Applicant determined the IC50Ca2+ for inhibition of calcium flux of three compounds according to the invention using the protocol shown in these documents. IC50Ca2+ represents the concentration which inhibits release of Ca^2+ by 50%.

[1] = tested on: cells resulting from HFDa skin fibroblasts; assay: Inhibition of calcium flux (IC50Ca2+) on cells from HFDa skin fibroblasts; type: cell-based; settings: Skin fibroblast, concentration which inhibits release of Ca2+ by 50%
Text: as §1, §2

[2] = tested on: human striated muscle cells innervated with explants of rat embryo spinal ganglia and spinal cord; assay: Nerve/muscle coculture model, contractions of muscle fibres; type: cell-based; settings: earlier demonstration by the Applicant Company, concentration not given
Method: The mixture of compounds of Example 2 was tested on a model of nerve/muscle coculture which makes it possible to recreate a motor arc by innervating human striated muscle cells with explants of rat embryo spinal ganglia and spinal cord.
Human muscle cells, resulting from samples of striated muscles from a healthy donor, are inoculated in wells with a cross section of 1.8 cm^2 (24-well culture dishes). After culturing for 10 days, these cells form a monolayer and fuse. At this stage, spinal cord explants from rat embryos aged 13 days comprising the spinal ganglia are deposited on the culture.
The growth of the neurites is visible outside the spinal cord explant after culturing for one day. The first contractions of the muscle fibres are observed after coculturing for 5 to 6 days and, after 3 weeks, all the muscle fibres in the vicinity of the explants are contracting.
The cocultures are used after 21 days, when the muscle fibres are striated and have mature differentiated neuromuscular junctions.
A muscle fibre having regular contractions (at least 60 contractions per minute) is then selected from three different culture wells and the number of contractions is counted over 30 seconds. […] At the end of incubation, the number of contractions is again counted over 30 seconds. […]

[3] = Antiwrinkle activity in vivo; settings: earlier demonstration, no details
[4] = tested on: Ca2+ channel (L, verapamil site); assay: Competitive inhibition of [3H]-(-)-D888 binding to L-type calcium channels, rat cerebral cortex homogenates; settings: 1 μM in DMSO; [3H]-(-)-D888 0.5 nM; 60 min/22° C.
Text: The experimental conditions are as follows:
D888, which is [^3H]-(−)-desmethoxyverapamil, acts as radiolabelled specific ligand and D600, which is (±)-methoxyverapamil hydrochloride, acts as reference molecule.
The specific binding of a ligand (labelled D888) to the receptors (L-type calcium channels, verapamil site) is defined as the difference between the total binding and the non-specific binding determined in the presence of an excess of cold (nonradioactive) ligand. The results are expressed as percentage of inhibition of the specific binding of the control in the presence of the compound tested.

Row | Compound | IC50 (SKNSH nerve cells) [µM] | IC50 [1] [µM] | contractions of the muscle fibres [2] | antiwrinkle activity [3] | percentage of inhibition of the specific binding of the control [4] [%]
1 | CCCCCCCCCCCCCCCC(=O)OCCOCCN(CC)CC [((Diethylamino)ethoxy)ethyl palmitate] | 24 | 14 |  |  | 
2 | CN1C(=O)CN=C(c2ccccc2)c2cc(Cl)ccc21 [diazepam] |  |  | inhibited the contractions of the muscle fibres | demonstrated in vivo | 
3 | CCCCCCCCCC(=O)OCCOCCN(CC)CC [((Diethylamino)ethoxy)ethyl decanoate] | 26 |  |  |  | 
4 | CCCCCCCCCCCC(=O)OCCOCCN(CC)CC [((Diethylamino)ethoxy)ethyl laurate, ((diethylamino)ethoxy)ethyl laurate] | 11 | 13 |  |  | 31
5 | CCCCCCCCCCCCCCCCCC(=O)OCCOCCN(CC)CC [((Diethylamino)ethoxy)ethyl stearate] | 37 |  |  |  | 
